The test system of one test is PC-3 cells. Nature of the test: Cell Proliferation Assay (Cell Titer Glo), PC-3 cell line. The settings on record: Homo sapiens, PC-3, PC3 cells; read-out: CPEC50 PC3. It counts as cell-based. In a few lines: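 Cell Titer Glo luminescence, read after fresh medium replaced the dosing medium, gave viability of PC-3 cells plated at 1000 cells/well. Compounds, 1:3 serially diluted in DMSO at 500× and then in medium, were added after 3-5 h adhesion and incubated 3 days at 37° C.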
On the technique in general: In ATP-based viability assays light output follows the ATP content of the culture.

Another test deals with T1, PDK1 kinase (Homo sapiens, UniProt O15530).
T1 sequence (O15530 1-556): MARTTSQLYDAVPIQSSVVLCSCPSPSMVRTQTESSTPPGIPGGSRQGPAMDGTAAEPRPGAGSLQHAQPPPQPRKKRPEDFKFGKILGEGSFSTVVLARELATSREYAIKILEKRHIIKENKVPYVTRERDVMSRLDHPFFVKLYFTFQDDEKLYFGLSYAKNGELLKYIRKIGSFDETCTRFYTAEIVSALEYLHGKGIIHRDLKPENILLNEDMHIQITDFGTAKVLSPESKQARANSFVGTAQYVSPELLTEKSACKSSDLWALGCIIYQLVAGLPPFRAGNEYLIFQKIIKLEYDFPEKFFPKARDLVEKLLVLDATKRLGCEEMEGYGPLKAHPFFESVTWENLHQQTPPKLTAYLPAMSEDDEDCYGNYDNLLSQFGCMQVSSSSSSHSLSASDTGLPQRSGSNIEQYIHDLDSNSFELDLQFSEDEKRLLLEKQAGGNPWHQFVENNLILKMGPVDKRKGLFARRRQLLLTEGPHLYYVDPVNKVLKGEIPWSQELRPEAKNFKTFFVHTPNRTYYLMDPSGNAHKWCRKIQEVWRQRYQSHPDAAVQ
Nature of the test: PDK1 Kinase Alpha Screen Assay. It counts as biochemical. The settings on record: read-out: PDK1 IC50. In a few lines:
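PDK1, 10 uM ATP, 50 nM biotin-PDK1-4 peptide; 50 mM Tris pH 7.5, 10 mM MgCl2, 0.1% BSA, 0.01% Tween-20, 2 mM DTT, 2.5% DMSO; 3-18 h. EDTA stop; AlphaScreen, phospho-Ser/Thr antibody, overnight RT.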

A value given as a limit tells only on which side of the number the result lay.

Turning to `CN(C)[C@H]1CCN(c2ccc(-c3cccc4cnc(Nc5ccc(S(N)(=O)=O)cc5)nc34)cn2)C1` [Compound 952, (S)-4-(8-(6-(3-(dimethylamino)pyrrolidin-1-yl)pyridin-3-yl)quinazolin-2-ylamino)benzenesulfonamide], the EC50 in the test on PC-3 cells was below 5 µM. Also, the IC50 at PDK1 kinase was below 5 µM.
Take `NS(=O)(=O)c1ccc(Nc2ncc3cccc(-c4ccc(NCCN5CCOCC5)nc4)c3n2)cc1` [Compound 953, 4-(8-(6-(2-morpholinoethylamino)pyridin-3-yl)quinazolin-2-ylamino)benzenesulfonamide]: the EC50 in the test on PC-3 cells is below 5 µM. Further, the IC50 on PDK1 kinase is below 5 µM.
As for `CCN(CC)CCNc1ccc(-c2cccc3cnc(Nc4ccc(S(N)(=O)=O)cc4)nc23)cn1` [Compound 954, 4-(8-(6-(2-(diethylamino)ethylamino)pyridin-3-yl)quinazolin-2-ylamino)benzenesulfonamide], the EC50 with PC-3 cells is below 5 µM. Besides, the IC50 on PDK1 kinase was below 5 µM.
Consider `CN1CCC(Nc2ccc(-c3cccc4cnc(Nc5ccc(S(N)(=O)=O)cc5)nc34)cn2)CC1` [Compound 955, 4-(8-(6-(1-methylpiperidin-4-ylamino)pyridin-3-yl)quinazolin-2-ylamino)benzenesulfonamide], for which the EC50 in the test on PC-3 cells is below 5 µM. At PDK1 kinase, the IC50 was below 5 µM.
For the compound `CC(C)N1CCN(c2ccc(-c3cccc4cnc(Nc5ccc(S(N)(=O)=O)cc5)nc34)cn2)CC1` [Compound 956, 4-(8-(6-(4-isopropylpiperazin-1-yl)pyridin-3-yl)quinazolin-2-ylamino)benzenesulfonamide], the EC50 in the test with PC-3 cells was below 5 µM. The IC50 on PDK1 kinase was below 5 µM.
For `NS(=O)(=O)c1ccc(Nc2ncc3cccc(-c4cncc(C(=O)O)c4)c3n2)cc1` [Compound 962, 5-(2-(4-sulfamoylphenylamino)quinazolin-8-yl)nicotinic acid], the EC50 in the test with PC-3 cells fell in the range of 5 to 10 µM. In addition, the IC50 on PDK1 kinase is 5 to 10 µM.
Consider `NS(=O)(=O)c1ccc(Nc2ncc3cc(C(F)(F)F)cc(-c4ccc(NCCN5CCCC5)nc4)c3n2)cc1` [Compound 963, 4-(8-(6-(2-(pyrrolidin-1-yl)ethylamino)pyridin-3-yl)-6-(trifluoromethyl)quinazolin-2-ylamino)benzenesulfonamide], for which, in the test with PC-3 cells, the EC50 is below 5 µM. Moreover, the IC50 at PDK1 kinase was below 5 µM.
In the case of `CN1CCN(c2ccc(-c3cc(C(F)(F)F)cc4cnc(Nc5ccc(S(N)(=O)=O)cc5)nc34)cn2)CC1` [Compound 964, 4-(8-(6-(4-methylpiperazin-1-yl)pyridin-3-yl)-6-(trifluoromethyl)quinazolin-2-ylamino)benzenesulfonamide], the EC50 in the test on PC-3 cells is below 5 µM. The IC50 at PDK1 kinase lay within 5 to 10 µM.
In the same order, the values of `NS(=O)(=O)c1ccc(Nc2ncc3cc(C(F)(F)F)cc(-c4ccc(N5CCNC(=O)C5)nc4)c3n2)cc1` [Compound 965, 4-(8-(6-(3-oxopiperazin-1-yl)pyridin-3-yl)-6-(trifluoromethyl)quinazolin-2-ylamino)benzenesulfonamide] are below 5 µM and below 5 µM.
Taken in the same sequence, the figures for `CC(C)NCCCNc1ccc(-c2cccc3cnc(Nc4ccc(S(N)(=O)=O)cc4)nc23)cn1` [Compound 971, 4-(8-(6-(3-(isopropylamino)propylamino)pyridin-3-yl)quinazolin-2-ylamino)benzenesulfonamide] were below 5 µM and below 5 µM.
Taken in the same sequence, the figures for `NS(=O)(=O)c1ccc(Nc2ncc3cccc(-c4ccc(NCCCN5CCCC5)nc4)c3n2)cc1` [Compound 972, 4-(8-(6-(3-(pyrrolidin-1-yl)propylamino)pyridin-3-yl)quinazolin-2-ylamino)benzenesulfonamide] were below 5 µM and below 5 µM.
Consider `CCN1CCC[C@H]1CNc1ccc(-c2cccc3cnc(Nc4ccc(S(N)(=O)=O)cc4)nc23)cn1` [Compound 973, (S)-4-(8-(6-((1-ethylpyrrolidin-2-yl)methyamino)-pyridin-3-yl)quinazolin-2-ylamino)benzenesulfonamide], for which, in the test on PC-3 cells, the EC50 is below 5 µM. Besides, on PDK1 kinase, the IC50 is below 5 µM.

The term IC50 denotes the concentration at which inhibition is half-maximal.
